Measured values published in patent US20090181986A1, “SUBSTITUTED HETEROCYCLIC COMPOUNDS” (priority 2007, published 2009).

Legend:
[1] = molecular target: wild-type human cardiac sodium channel, hNav1.5 (Homo sapiens, UniProt Q14524); assay: Late INa screening assay (PatchXpress whole cell patch clamp, late current generated with Tefluthrin or ATX II); format: cell-based; settings: for inhibition at 10 µM: test compound at 10 μM, read-out: Late INa % blk
Method: The late sodium current (Late INa) and peak sodium current (Peak INa) assays are performed on an automated electrophysiology platform, PatchXpress 7000A (MDS Analytical Technologies, Sunnyvale, Calif.), which uses the whole cell patch clump technique to measure currents through the cell membrane of up to 16 cells at a time. The assay uses an HEK293 (human embryonic kidney) cell line heterologously expressing the wild-type human cardiac sodium channel, hNav1.5, purchased from Millipore (Billerica, Mass.). No beta subunits were coexpressed with the Na channel alpha subunit. […] Experiments are carried out at 24-27° C.
For both the Late INa and Peak INa assays, series resistance compensation is set to 50% and whole-cell compensation is performed automatically. […] Currents through open sodium channels are automatically recorded and stored in the DataXpress2 database (MDS Analytical Technologies, Sunnyvale, Calif.). Analysis is performed using DataXpress2 analysis software and data are compiled in Excel.
Compound stocks are routinely made in glass vials to 10 mM in dimethyl sulfoxide (DMSO). In some cases, when compounds are not soluble in DMSO, they are made in 100% ethanol. Stocks are sonicated as necessary. The extracellular solution for screening Late INa is composed of: 140 mM NaCl, 4 mM KCl, 1.8 mM CaCl2, 0.75 mM MgCl2, and 5 mM HEPES with pH adjusted to 7.4 using NaOH. The extracellular solution for screening Peak INa is composed of: 20 mM NaCl, 120 mM N-methyl-D glucamine, 4 mM KCl, 1.8 mM CaCl2, 0.75 mM MgCl2, and 5 mM HEPES with pH adjusted to 7.4 using HCl. The intracellular solution used to perfuse the inside of the cells for both the Late INa and Peak INa assays contains: 120 mM CsF, […], 5 mM EGTA, 5 mM HEPES and pH adjusted to 7.4 with CsOH. […] The ONa extracellular solution used at the end of each experiment for the Late INa and Peak INa assays to measure baseline current contains: 140 mM N-methyl-D-glucamine; 4 mM KCl; 1.8 mM CaCl2; 0.75 mM MgCl2; 5 mM HEPES and pH was adjusted to 7.4 with HCl.
For the Late INa assay, sodium channels are activated every 10 seconds (0.1 Hz) by depolarizing the cell membrane to −20 mV for 250 milliseconds (ms) from a holding potential of −120 mV.
All compounds are tested to determine their activity in blocking the late sodium current. Late INa current is generated by adding 10 μM Tefluthrin (pyrethroid) to the extracellular solution while recording Na currents. […] For some experiments, 50 nM ATX II (sea anemone toxin), another late INa activator, was used to generate the late component. […] Baseline current in the absence of Na^+ ions is measured at the end of each experiment (after two additions of 0 Na solution—see above) and is used to calculate the percent block by compound.

L-type calcium channel = L-type calcium channel activity well-plate assay (IMR-32 cells, Ca-4 dye, FlexStation); format: cell-based, human
Method: Cell Culture: IMR-32 (human neuroblastoma) cells were obtained from The American Type Culture Collection. The cells were maintained in MEM supplemented with 10% fetal bovine serum, 2 mM of L-glutamine, 100 IU/ml of penicillin, 50 μg/ml of streptomycin, 1% of sodium pyruvate, 1% of sodium bicarbonate and 1% of non-essential amino acid. […] Culture medium was changed every two days and cells were recultivated when they reached 70-80% confluent.
Assay: IMR-32 cells were seeded on a Microtest 96-well Assay Plate (BD FALCON™) at a density of 200,000 cells/well in 200 μl culture medium for overnight. The culture medium was removed, and replaced by 120 μl Ca-4 dye (MDS Analytical Technologies, Sunnyvale, Calif.) in HBSS (1× Hank's Balanced Salt solution plus 20 mM HEPES, pH 7.4) containing 2 mM probenecid. Cells were then incubated for 1 hour at 37° in incubator. Testing compounds were diluted from 5 μM-50 μM in HBSS, and 40 μl were added in cells before assay. […] The inhibition of L-type calcium channel activity by compounds was then calculated.

hERG potassium channel = hERG potassium channel (Homo sapiens, UniProt Q12809); assay: hERG screening assay (PatchXpress patch clamp, CHO cells)
Sequence of hERG potassium channel (Q12809 whole entry): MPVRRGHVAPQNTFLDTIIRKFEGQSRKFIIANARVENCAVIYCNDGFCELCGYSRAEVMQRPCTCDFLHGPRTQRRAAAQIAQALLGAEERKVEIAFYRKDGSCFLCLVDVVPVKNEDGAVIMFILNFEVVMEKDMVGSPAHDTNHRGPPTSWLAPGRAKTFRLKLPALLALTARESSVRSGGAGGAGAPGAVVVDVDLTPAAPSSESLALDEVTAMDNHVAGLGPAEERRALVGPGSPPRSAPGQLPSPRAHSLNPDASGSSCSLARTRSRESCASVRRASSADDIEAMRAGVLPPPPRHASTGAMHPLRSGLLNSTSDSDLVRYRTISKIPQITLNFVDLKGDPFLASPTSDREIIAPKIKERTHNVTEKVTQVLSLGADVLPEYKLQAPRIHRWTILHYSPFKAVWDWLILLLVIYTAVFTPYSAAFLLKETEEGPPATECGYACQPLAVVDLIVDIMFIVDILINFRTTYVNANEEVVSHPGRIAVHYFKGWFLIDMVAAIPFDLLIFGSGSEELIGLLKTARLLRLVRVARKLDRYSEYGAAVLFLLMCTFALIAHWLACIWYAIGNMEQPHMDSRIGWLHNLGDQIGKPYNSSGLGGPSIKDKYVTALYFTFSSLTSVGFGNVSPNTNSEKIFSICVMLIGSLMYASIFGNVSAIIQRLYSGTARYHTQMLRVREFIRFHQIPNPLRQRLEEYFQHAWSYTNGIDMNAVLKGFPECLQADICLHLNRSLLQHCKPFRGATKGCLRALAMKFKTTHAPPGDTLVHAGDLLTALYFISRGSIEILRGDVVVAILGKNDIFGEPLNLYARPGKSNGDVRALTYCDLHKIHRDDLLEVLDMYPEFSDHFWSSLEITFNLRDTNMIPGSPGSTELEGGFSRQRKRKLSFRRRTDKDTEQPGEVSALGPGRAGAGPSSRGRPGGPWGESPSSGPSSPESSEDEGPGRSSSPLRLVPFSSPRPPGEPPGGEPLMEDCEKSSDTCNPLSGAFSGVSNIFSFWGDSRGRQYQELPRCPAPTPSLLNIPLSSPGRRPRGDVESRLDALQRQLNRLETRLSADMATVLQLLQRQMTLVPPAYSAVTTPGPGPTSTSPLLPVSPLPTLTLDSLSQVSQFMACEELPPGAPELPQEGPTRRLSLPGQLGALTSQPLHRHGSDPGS

Sequence of wild-type human cardiac sodium channel, hNav1.5 (Q14524 whole entry): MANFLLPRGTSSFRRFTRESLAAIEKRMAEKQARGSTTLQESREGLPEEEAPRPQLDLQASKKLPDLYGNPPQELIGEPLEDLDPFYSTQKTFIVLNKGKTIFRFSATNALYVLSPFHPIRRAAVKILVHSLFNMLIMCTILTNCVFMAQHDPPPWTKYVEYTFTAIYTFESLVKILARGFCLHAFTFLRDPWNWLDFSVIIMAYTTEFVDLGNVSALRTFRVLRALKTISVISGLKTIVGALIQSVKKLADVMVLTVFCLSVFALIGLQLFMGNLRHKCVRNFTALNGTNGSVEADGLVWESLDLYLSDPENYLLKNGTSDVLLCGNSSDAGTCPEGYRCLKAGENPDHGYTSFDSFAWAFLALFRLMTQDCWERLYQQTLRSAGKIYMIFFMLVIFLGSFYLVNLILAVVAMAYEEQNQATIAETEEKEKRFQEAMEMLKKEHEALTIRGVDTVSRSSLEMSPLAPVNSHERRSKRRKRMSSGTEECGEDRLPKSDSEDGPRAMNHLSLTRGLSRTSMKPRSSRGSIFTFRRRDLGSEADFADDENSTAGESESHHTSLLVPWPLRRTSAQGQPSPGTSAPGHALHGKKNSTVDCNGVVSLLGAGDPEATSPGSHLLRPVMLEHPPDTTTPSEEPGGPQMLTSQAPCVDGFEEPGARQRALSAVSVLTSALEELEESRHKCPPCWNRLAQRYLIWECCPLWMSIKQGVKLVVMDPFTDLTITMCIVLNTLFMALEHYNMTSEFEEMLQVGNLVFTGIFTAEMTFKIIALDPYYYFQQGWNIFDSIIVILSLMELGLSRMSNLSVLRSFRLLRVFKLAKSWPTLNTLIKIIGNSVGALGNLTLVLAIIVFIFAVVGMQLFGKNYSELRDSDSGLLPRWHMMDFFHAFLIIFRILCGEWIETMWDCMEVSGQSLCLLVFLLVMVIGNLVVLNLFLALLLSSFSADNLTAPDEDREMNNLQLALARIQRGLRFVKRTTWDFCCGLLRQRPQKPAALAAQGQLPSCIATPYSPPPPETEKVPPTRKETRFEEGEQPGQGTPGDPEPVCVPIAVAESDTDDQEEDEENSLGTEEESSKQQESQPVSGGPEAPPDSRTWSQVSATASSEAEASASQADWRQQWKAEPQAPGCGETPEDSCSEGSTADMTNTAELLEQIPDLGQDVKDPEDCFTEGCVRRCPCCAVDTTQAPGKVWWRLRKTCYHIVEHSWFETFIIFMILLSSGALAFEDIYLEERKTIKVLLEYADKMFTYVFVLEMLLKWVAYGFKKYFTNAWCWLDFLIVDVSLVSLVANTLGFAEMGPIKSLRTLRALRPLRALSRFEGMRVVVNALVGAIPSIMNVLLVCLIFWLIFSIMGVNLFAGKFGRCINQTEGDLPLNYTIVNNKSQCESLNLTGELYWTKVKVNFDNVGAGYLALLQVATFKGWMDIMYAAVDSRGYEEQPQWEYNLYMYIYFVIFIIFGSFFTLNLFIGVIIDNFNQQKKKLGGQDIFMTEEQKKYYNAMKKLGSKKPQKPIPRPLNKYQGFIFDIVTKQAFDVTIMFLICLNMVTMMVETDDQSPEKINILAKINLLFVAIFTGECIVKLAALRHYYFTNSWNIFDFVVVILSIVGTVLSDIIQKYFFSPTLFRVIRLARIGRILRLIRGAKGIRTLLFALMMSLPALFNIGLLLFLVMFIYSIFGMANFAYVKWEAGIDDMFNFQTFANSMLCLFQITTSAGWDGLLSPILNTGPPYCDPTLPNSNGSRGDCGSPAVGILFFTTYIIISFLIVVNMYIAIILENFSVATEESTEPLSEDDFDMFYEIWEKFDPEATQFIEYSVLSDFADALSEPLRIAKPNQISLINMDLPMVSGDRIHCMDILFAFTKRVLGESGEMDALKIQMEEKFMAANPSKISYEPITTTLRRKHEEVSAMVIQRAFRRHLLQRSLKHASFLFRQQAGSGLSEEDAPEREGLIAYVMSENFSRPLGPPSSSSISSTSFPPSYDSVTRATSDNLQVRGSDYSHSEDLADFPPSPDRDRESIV

Row | Compound | inhibition at 10 µM [1] | effect on late sodium current ([1]; late INa assay, compounds tested at 10 μM) | CaL Plate Assay % blk (1 μM test cmpd) (L-type calcium channel) | CaL Plate Assay % blk (10 μM test cmpd) (L-type calcium channel) | hERG Patch Clamp hERG % blk (1 μM test cmpd) (hERG potassium channel) | hERG Patch Clamp hERG % blk (10 μM test cmpd) (hERG potassium channel)
1 | CC1=C(C(=O)OCc2ccc(C(F)(F)F)cc2)C(c2cccc3ccccc23)n2nnnc2N1 (stereo not shown) [PT-051, 4-(trifluoromethyl)benzyl 5-methyl-7-(naphthalen-1-yl)-4,7-dihydrotetrazolo[1,5-a]pyrimidine-6-carboxylate] | 16.9% | – | – | – | – | –
2 | CC1=C(C(=O)O[C@@H](C)c2ccccc2)C(c2cc3ccccc3s2)n2nnnc2N1 (stereo partly drawn) [PT-057, (S)-1-phenylethyl 7-(benzo[b]thiophen-2-yl)-5-methyl-4,7-dihydrotetrazolo[1,5-a]pyrimidine-6-carboxylate] | 71% | – | – | – | – | –
3 | CC1=C(C(=O)N2CCN(c3ccccc3)CC2)C(c2ccsc2)C2=C(CCCC2=O)N1 (stereo not shown) [PT-166, 2-methyl-3-(4-phenylpiperazine-1-carbonyl)-4-(thiophen-3-yl)-4,6,7,8-tetrahydroquinolin-5(1H)-one] | – | potentiated late sodium current | – | – | – | –
4 | CCOC(=O)C1=C(C(C)C)NC(C(C)C)=C(C(=O)OCC)C1c1ccc(Br)s1 [PT-183, diethyl 4-(5-bromothiophen-2-yl)-2,6-diisopropyl-1,4-dihydropyridine-3,5-dicarboxylate] | – | – | 0% | 16% | 10% | 10%
5 | CCOC(=O)C1=C(C)Nc2nnnn2C1c1cccc2ccccc12 (stereo not shown) [PT-192, ethyl 5-methyl-7-(naphthalen-1-yl)-4,7-dihydrotetrazolo[1,5-a]pyrimidine-6-carboxylate] | – | – | 9% | 12% | 23% | 29%
6 | CCCC1=C(C(=O)OCC)C(c2ccsc2)C2=C(CC(c3ccccc3)CC2=O)N1 (stereo not shown) [PT-149, ethyl 5-oxo-7-phenyl-2-propyl-4-(thiophen-3-yl)-1,4,5,6,7,8-hexahydroquinoline-3-carboxylate] | – | – | 4% | 72% | 46% | 90%
7 | CC1=C(C(=O)OCc2ccccc2)C(c2cc3ccccc3o2)n2nnnc2N1 (stereo not shown) [PT-045, benzyl 7-(benzofuran-2-yl)-5-methyl-4,7-dihydrotetrazolo[1,5-a]pyrimidine-6-carboxylate] | – | – | 0% | 98% | 10% | 70%
8 | CCOC(=O)C1=C(C)N(C)C(C)=C(C(=O)OCC)C1c1cccc2ccccc12 [PT-191, diethyl 1,2,6-trimethyl-4-(naphthalen-1-yl)-1,4-dihydropyridine-3,5-dicarboxylate] | – | – | 12% | 37% | 26.5% | 68%
9 | CCOC(=O)C1=C(C)NC2=C(C(=O)CCC2)C1c1ccco1 (stereo not shown) [PT-153, ethyl 4-(furan-2-yl)-2-methyl-5-oxo-1,4,5,6,7,8-hexahydroquinoline-3-carboxylate] | – | – | 3% | 44% | 10.5% | 13.5%
10 | CC1=C(C(=O)NCc2ccccc2)C(c2ccsc2)C2=C(CCCC2=O)N1 (stereo not shown) [PT-178, N-benzyl-2-methyl-5-oxo-4-(thiophen-3-yl)-1,4,5,6,7,8-hexahydroquinoline-3-carboxamide] | – | – | 10% | 2% | 11.5% | 30%
11 | CCOC(=O)C1=C(C)NC(C)=C(C(=O)OCC)C1c1cc2ccccc2s1 [PT-114, diethyl 4-(benzo[b]thiophen-2-yl)-2,6-dimethyl-1,4-dihydropyridine-3,5-dicarboxylate] | – | – | 8% | 15% | 27.5% | 86.5%
12 | CC1=C(C(=O)OCc2ccccc2)C(c2c3ccccc3cc3ccccc23)n2nnnc2N1 (stereo not shown) [PT-039, benzyl 7-(anthracen-9-yl)-5-methyl-4,7-dihydrotetrazolo[1,5-a]pyrimidine-6-carboxylate] | – | – | 2% | 0% | 10% | 27.5%
13 | CCOC(=O)C1=C(C)NC(C)=C(C(=O)OCC)C1c1cccs1 [PT-111, diethyl 2,6-dimethyl-4-(thiophen-2-yl)-1,4-dihydropyridine-3,5-dicarboxylate] | – | – | 75% | 79% | 11.5% | 48.5%
14 | N#CC1=C(N)OC2=C(C(=O)CCC2)C1c1ccsc1 (stereo not shown) [PT-100, 2-amino-5-oxo-4-(thiophen-3-yl)-5,6,7,8-tetrahydro-4H-chromene-3-carbonitrile] | – | – | 0% | 0% | 10% | 16.5%
15 | CCOC(=O)C1=C(C)NC(C)=C(C(=O)OCC)C1c1sc2ccccc2c1C [PT-116, diethyl 2,6-dimethyl-4-(3-methylbenzo[b]thiophen-2-yl)-1,4-dihydropyridine-3,5-dicarboxylate] | – | – | 6% | 32% | 22.9% | 66%
16 | CCOC(=O)C1=C(C)NC(C)=C(C(=O)OCC)C1c1ccc2ccccc2c1 [PT-107, diethyl 2,6-dimethyl-4-(naphthalen-2-yl)-1,4-dihydropyridine-3,5-dicarboxylate] | – | – | 10% | 44% | 11.5% | 48%
17 | CCOC(=O)C1=C(C)NC(C)=C(C(=O)OCC)C1c1ccc(CC)s1 [PT-113, diethyl 4-(5-ethylthiophen-2-yl)-2,6-dimethyl-1,4-dihydropyridine-3,5-dicarboxylate] | – | – | 18% | 93% | 11% | 57.5%
18 | CC1=C(C(=O)OCc2ccccc2)C(c2cccc3ccccc23)n2nnnc2N1 (stereo not shown) [PT-027, benzyl 5-methyl-7-(naphthalen-1-yl)-4,7-dihydrotetrazolo[1,5-a]pyrimidine-6-carboxylate] | – | – | 0% | 0% | 14% | 64.5%
19 | CCOC(=O)C1=C(CC)NC(CC)=C(C(=O)OCC)C1c1ccc(Br)s1 [PT-181, diethyl 4-(5-bromothiophen-2-yl)-2,6-diethyl-1,4-dihydropyridine-3,5-dicarboxylate] | – | – | 8% | 61% | 10.5% | 73%
